# Laboratory results: a melting point compilation (Tetko et al.)
row,SMILES,melting point [°C]
1,COc1ccc(Br)nc1C(F)(F)F,32 to 34
2,Cc1cc(C)c2c(N)nsc2n1,180 to 182
3,Fc1ccc(NCc2ccccn2)cc1,71 to 73
4,O=C(Nc1ccccn1)C1CCCNC1 (stereo not given),94 to 96
5,O=C1Nc2cc(SCc3ccccc3)ccc2C1=O,248 to 250
6,Cc1ccc(C(=O)Nc2cccc(C(F)(F)F)c2)cc1O,169 to 171
7,NC(=O)c1ccsc1NC(=O)CCCl,171 to 173
8,COc1ccccc1C1CC1C(=O)O (stereo not given),137 to 139
9,O=C(O)c1ccc2cc[nH]c2n1,209 to 211
10,CSCc1cc(C(=O)O)ccc1F,119 to 121
11,CC1(C)NC(=O)N(Cc2ccc(C#N)cc2)C1=O,167 to 169
12,CS(=O)(=O)c1ccc(OCCCl)cc1,85 to 87
13,CC(C)c1ccc2c(c1)[C@@H](O)CCC2,89 to 91
14,CN(C)c1cccc(-c2nnc(S)n2N)c1,209 to 211
15,CCC(O)(C(N)=O)c1ccc(Br)cc1 (stereo not given),146 to 148
16,Cc1c(NC(=O)CSc2nnc(N)s2)c(=O)n(-c2ccccc2)n1C,142 to 144
17,Cc1oc(-n2cccc2)c(C#N)c1C(=O)O,208 to 210
18,NNc1cn[nH]c(=O)c1Cl,171 to 173
19,NC(=O)Nc1cc(Cl)ccc1C(=O)O,185 to 187
20,Nc1nccc(C(F)(F)F)n1,174 to 178
21,N#Cc1nc(N)[nH]c1C#N,270 to 272
22,N#Cc1c2c(n(-c3ccccc3)c1NC(=O)CCl)CCCC2,156 to 158
23,Cc1c(O)ccc2c(CCl)cc(=O)oc12,268 to 270
24,N#Cc1nc(C2CC2)oc1N1CCNCC1,99 to 101
25,O=C1Nc2cc(F)c([N+](=O)[O-])cc2C1=O,236 to 238

row,SMILES,melting point [°C]
1,COc1ccc(C(=O)C(C)Br)cc1OC (stereo not given),83 to 85
2,CCc1ccc(C(=O)CCl)cc1,41 to 43
3,Nc1ccc2[nH]c(=O)[nH]c2c1,167 to 169
4,CC(=O)c1ccc(S(N)(=O)=O)cc1,178 to 180
5,CCOC(=O)C(=O)c1csc(N)n1,78 to 80
6,Nc1nccc(-c2cccs2)n1,185 to 187
7,O=C(O)C1=CCCSC1,103 to 105
8,Cc1c(Br)cc(C(=O)O)cc1[N+](=O)[O-],183 to 185
9,O=C(O)c1cn(-c2ccc(F)cc2)nn1,159 to 161
10,COc1cc(C=O)ccc1OCC(F)(F)F,66 to 68
11,Cc1nc2ccccc2c2c(N)c3ccccc3n12,200 to 202
12,BrC12CC3CC(C1)CC(Br)(C3)C2,108 to 110
13,NC(Cc1ccco1)C(=O)O (stereo not given),179 to 181
14,COC(=O)c1cc(-c2ccccc2)nc2ccccc12,60 to 62
15,CN(C)c1ccc([N+](=O)[O-])cc1C(=O)O,149 to 151
16,O=C(CCSc1ccccc1)c1ccc(F)cc1,111 to 113
17,Cc1nnc(CO)o1,129 to 131
18,CC(Oc1ccc(C#N)cc1)C(=O)O (stereo not given),158 to 160
19,CN(C)c1ccc(N)c2cnccc12,107 to 109
20,Nc1ccc(N2CCSCC2)c(Cl)c1,101 to 103
21,Nc1ccc(Cl)c(S(=O)(=O)N2CCCC2)c1,116 to 118
22,O=C(CCl)NC1CCOCC1,82 to 84
23,N#CCCn1cnc2ccccc2c1=O,142 to 144
24,Cn1nnc(C(=O)O)c1C(F)(F)F,114 to 116
25,O=C(O)CCCOc1cccc(Br)c1,50 to 52

row,SMILES,melting point [°C]
1,CC(C)CS(=O)(=O)CC(=O)O,46 to 48
2,Nc1ccc(Oc2ccnc3cc(Cl)ccc23)c(F)c1,154 to 156
3,O=C(CCc1ccccc1Cl)c1ccccc1,46 to 48
4,COc1ccc(C(O)c2ccc(OC)cc2C)cc1 (stereo not given),71 to 73
5,Cc1ccc(S(=O)(=O)N(C)c2ccc(O)cc2)cc1,137 to 139
6,CN1C(=O)c2ccc(C(=O)O)cc2C1=O,173 to 175
7,O=C(O)c1ccc(S(=O)(=O)Nc2cccc(Cl)c2F)o1,151 to 153
8,CS(=O)(=O)c1ccc(N)cn1,171 to 173
9,O=C(O)c1ccccc1OCc1ccccc1Cl,119 to 121
10,CCOc1ccc(C(=O)CC)cc1OCC,39 to 41
11,CCCNC(=O)Nc1ccc(CC(=O)O)cc1,174 to 176
12,O=S(=O)(c1ccc(CCl)o1)N1CCCC1,81 to 83
13,Cc1cc(O)c([N+](=O)[O-])cc1S(=O)(=O)Cl,63 to 65
14,CC(=O)c1ccc(S(=O)(=O)CC(F)F)cc1,97 to 99
15,Cc1cc(C(=O)O)cc([N+](=O)[O-])c1,169 to 171
16,CC(C)c1nc(S(=O)(=O)Cl)c[nH]1,162 to 164
17,O=C1C=CC(=O)N1c1cnccn1,116 to 118
18,c1ccc(-c2nnc(-c3ccccc3)[nH]2)cc1,189 to 191
19,CC(=O)Nc1cncc(C(=O)NN)c1,229 to 231
20,O=C(NCCO)c1ccn[nH]1,169 to 171
21,NC(=O)c1c(N)sc2c1-c1ccccc1CCC2,145 to 147
22,O=C(O)CCNC(=O)c1ccccc1Cl,82 to 84
23,CN(C(=O)c1ccc(Cl)cc1)c1ccc(O)cc1,205 to 207
24,CCc1sc(C(=O)O)cc1Br,155 to 157
25,N#CC=CS(=O)(=O)c1ccc(Cl)cc1,141 to 143

row,SMILES,melting point [°C]
1,CC(=O)CC(=O)Nc1ccc(NC(=O)C2CC2)cc1,183 to 185
2,COC(=O)C1C2CCC(N2)C1C(=O)OC (stereo not given),77 to 79
3,Cc1nn(-c2ccccc2)c(Cl)c1C(=O)O,232 to 234
4,O=[N+]([O-])c1ccc(Cl)c2c1CCCN2,93 to 95
5,Fc1cccc(-c2noc(S)n2)c1,93 to 95
6,O=C(O)Cc1csc(-c2ccccc2Cl)n1,105 to 109
7,Nc1ccnn1C1CCCCC1,80 to 82
8,Cc1ccc(C#N)c(Sc2ccccc2)c1,59 to 61
9,CC(C)(N)c1nnn[nH]1,251 to 253
10,O=C(O)c1ccc2c(c1)C(=O)NS2(=O)=O,279 to 281
11,O=Cc1cn2cc(Cl)ccc2n1,183 to 185
12,NC(=O)C1CCCCN1C(=O)CCl (stereo not given),149 to 151
13,FC(F)(F)c1ccccc1-c1nnc(CCl)o1,35 to 37
14,CC(NC(=O)CC1CCCC1)C(=O)O (stereo not given),139 to 141
15,CS(=O)(=O)Nc1ccccc1N,102 to 104
16,O=C(O)C=Cc1ccc(OC(F)(F)C(F)C(F)(F)F)cc1 (stereo not given),159 to 163
17,CC(Br)C(=O)c1ccc(Cl)cc1 (stereo not given),68 to 70
18,COc1cc(CCl)ccc1[N+](=O)[O-],49 to 51
19,CC(C)NC(=O)c1ccc(C(=O)O)cc1,179 to 181
20,Cn1c(C(=O)O)c(Cl)c2ccccc21,233 to 235
21,NC(=O)Cc1nc2ccccc2[nH]1,229 to 231
22,CN(c1ccc(C(=N)N)cc1)C1CCCCC1,122 to 124
23,O=S(=O)(NC1=NCCN1)c1cccs1,173 to 175
24,CC(=O)c1nc(-c2ccccc2)cs1,77 to 79
25,Nc1cc(-c2ccc(Br)o2)no1,144 to 146

row,SMILES,melting point [°C]
1,Cc1ccc(-c2noc(CCC(=O)O)n2)cc1F,142 to 144
2,CCOC(=O)c1c(N)cc(OC)cc1OC,61 to 63
3,CS(=O)(=O)NCc1ccccc1,49 to 51
4,CCOc1cccc(CC(=O)O)c1,89 to 91
5,Nn1c(S)nnc1-c1ccccc1,193 to 195
6,OC1CCCCc2ccccc21 (stereo not given),101 to 103
7,CC(=O)c1c(O)cc(F)cc1F,45 to 47
8,O=S(=O)(CCO)c1ccc(Br)cc1,63 to 65
9,O=C(O)CCn1cccc1,62 to 64
10,CCC(CC)n1nccc1C(=O)O,137 to 139
11,O=C(O)C(c1ccccc1F)N1CCOCC1 (stereo not given),189 to 191
12,CCOC(=O)/C(C#N)=C/Nc1cc(Cl)ccc1OC,132 to 134
13,COC(=O)c1cccc(-c2nc(CCl)cs2)c1,129 to 131
14,CC1CN(c2cc(N)cc(F)c2)CC(C)O1 (stereo not given),80 to 82
15,Nc1ccc(CCN2CCOC2=O)cc1,192 to 194
16,COC(=O)c1cc(N)ccc1F,84 to 86
17,Cc1noc(C)c1S(=O)(=O)NCCC(=O)O,105 to 118
18,CC1Cc2ccccc2N1S(N)(=O)=O (stereo not given),67 to 69
19,CCOC(=O)c1cc(C)nc2c(C(N)=O)cnn12,198 to 200
20,O=S(=O)(c1ccc(Cl)c(C(F)(F)F)c1)N1CCNCC1,292 to 295
21,COc1ccc(CCC(=O)O)cc1F,111 to 113
22,O=C(O)C1CCCN(C(=O)Cc2ccccc2)C1 (stereo not given),112 to 114
23,CCc1c(C)[nH]c2ccc(Oc3ccccc3)cc2c1=O,266 to 268
24,CC(C)(C)OC(=O)N1CC(OCCC(=O)O)C1,52 to 54
25,N#Cc1cccc(S(=O)(=O)Nc2cn[nH]c2)c1,162 to 164

row,SMILES,melting point [°C]
1,O=C(O)c1cc(F)c(Br)c(S(=O)(=O)Cl)c1,213 to 215
2,CC(=O)Nc1cccc2c1NCCC2,108 to 110
3,CS(=O)(=O)Nc1nnc(N)s1,251 to 253
4,CC1(c2c(F)cccc2F)CC1C(=O)O (stereo not given),113 to 115
5,CCOc1cccc2c1OCC(C(=O)O)C2 (stereo not given),160 to 162
6,Nn1c(S)nnc1C1CCCCO1 (stereo not given),162 to 164
7,CC(Cl)C(=O)NC(C)c1ccc2c(c1)OCCO2 (stereo not given),110 to 112
8,OCC1(NCCc2ccccc2)CCCC1,86 to 88
9,O=C(c1cc(Br)c[nH]1)C(Cl)(Cl)Cl,125 to 127
10,CNC(C(=O)O)c1cc(F)c(F)c(F)c1 (stereo not given),247 to 249
11,Nc1ccc2c(c1)CC(=O)N2,190 to 192
12,Cn1ccc(S(=O)(=O)N2CCNCC2)c1,129 to 131
13,CC(C)(C)c1nnc(S)n1N,185 to 189
14,Cc1sc(C(N)=O)cc1S(=O)(=O)Cl,122 to 124
15,O=C1NC2(CCCCC2)NC2=C1CCCC2,193 to 195
16,N#Cc1c([N+](=O)[O-])cccc1S(=O)(=O)Cl,89 to 91
17,Nc1ccnc(OCCO)c1,99 to 101
18,Fc1ccc(-c2csc3nc(Cc4ccc(Cl)cc4)nc(Cl)c23)cc1,148 to 150
19,O=C1Nc2cccc(I)c2C1=O,199 to 201
20,N#CCCNc1cccc(Cl)c1,141 to 143
